Where “and” joins values, the source holds several entries; their conditions need not be identical. Identical values can stand only once.
System: Human lung cancer cells Spc-A1
Assay: MTT method, anti-proliferation on lung cancer cell line SPC-A1
Assay type: cell-based
Conditions: for Inhibition rate (%) / OD value: 5Fu 10^−4 mol/L; for OD value: A at 490 nm, x ± s, n = 5
Protocol: Human lung cancer cells Spc-A1 (hereinafter referred to as SPC), is purchased from Wuhan Cell Collection Center (cell bank of China Center for Type CultureCollection).
The tumor cells are placed in the RPMI-1640 complete medium including 10% fetal calf serum and are cultured at 37° C. under 5% CO2 incubator. When the cell growth reaches the logarithmic phase (approximately 80% integration), cells are subcultured. The experiments are divided into negative control group (RPMI-1640), positive drug group (5Fu, 10^−4 mol·L^−1) and reagent group of Smilaxchinoside F at different concentrations, which are prepared by Guilin Sanjin Pharmaceutical Co., Ltd, in accordance with example 1 of the present invention.
5×10^7·L^−1 cells at logarithmic phase are seeded in 96-well plates, each well 180 μL. After culturing for 24 h, medicine is added, each well 20 μL, five parallel wells for each group. On 4 hours before the end of culture, 20 μL of 5 g·L^−1 MTT solution is added to the each well. After the end of the culture (48 h and 72 h), the supernatant is discarded. 150 μL of DMSO is added to each wells; the optical density (A value) of each well is detected by a microplate reader at 490 nm; the tumor suppression percentage is calculated.

## O=c1[nH]cc(F)c(=O)[nH]1 [5Fu]
  Effect on SPA (lung cancer) cell proliferation in vitro, in words: significant anti-tumor effect
48 h
  Inhibition rate (%): 39.4% and 39.37%
  OD value: 0.372 ± 0.031
72 h
  Inhibition rate (%): 59.6% and 59.61%
  OD value: 0.295 ± 0.026

— patent publication US8648180B2, “Compound Smilaxchinoside F” (Guilin Sanjin Pharmaceuticals Co., Ltd., priority 2010, dated 2014)
